Reference: PMC7479175, “Selection of Potent Inhibitors of Soluble Epoxide Hydrolase for Usage in Veterinary Medicine” (Frontiers in Veterinary Science, 2020)
Read-outs that look alike come from different tables or passages of the source.

What was measured:
[1] = target: T1, sEH activity from liver cytosol of Rat (Rattus norvegicus, UniProt P80299); assay: sEH inhibition potency (IC50), radioactive assay with [3H]t-DPPO, liver cytosol; assay type: biochemical
T1 construct: The radioactive fluorescent assay was used with the liver crude extracts; from tissue; host or cells: rat liver cytosol (100,000 g supernatant)
T1 sequence (P80299 1-554): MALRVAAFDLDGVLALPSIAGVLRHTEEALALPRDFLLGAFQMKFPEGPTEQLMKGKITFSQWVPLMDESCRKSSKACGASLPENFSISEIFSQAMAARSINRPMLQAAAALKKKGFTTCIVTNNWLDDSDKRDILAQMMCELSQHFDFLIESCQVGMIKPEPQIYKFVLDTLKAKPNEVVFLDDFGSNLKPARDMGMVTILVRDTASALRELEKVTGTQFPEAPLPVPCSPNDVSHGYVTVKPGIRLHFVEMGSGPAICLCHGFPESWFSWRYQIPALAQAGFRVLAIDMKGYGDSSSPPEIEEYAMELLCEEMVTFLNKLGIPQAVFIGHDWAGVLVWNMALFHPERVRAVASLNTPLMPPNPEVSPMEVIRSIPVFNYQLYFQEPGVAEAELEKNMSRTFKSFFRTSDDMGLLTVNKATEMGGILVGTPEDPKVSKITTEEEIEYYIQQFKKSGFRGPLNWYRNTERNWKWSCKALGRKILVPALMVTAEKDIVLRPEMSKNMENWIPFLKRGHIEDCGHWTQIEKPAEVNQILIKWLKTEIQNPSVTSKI
Text: (§1) Fresh liver tissues samples (5–30 g) were collected promptly after death from healthy adult cat, dog and horse euthanized for reasons unrelated to this study, and whose bodies were given to science by the owners in line with federal regulations and protocol approved by the Institutional Animal Care and Use Committee at University of California Davis. Similarly, tissues from the other animals tested herein were collected from healthy animals immediately after being slaughter at the university abattoir. Because no animals were directly used or killed for this study, sample collections were exempted from approval by the Institutional Animal Care and Use Committee of the University of California Davis and Michigan State University. […] The tissues were flash-frozen in liquid nitrogen following removal, and then kept at −80°C until used. After thawing on ice, the samples were homogenized in chilled sodium phosphate buffer (20 mM pH 7.4) containing 5 mM EDTA, 1 mM DTT and 1 mM PMSF (tissue weight:buffer volume ratio 1:4). These homogenates were centrifuged at 100,000 g for 60 min at 4°C. The supernatant (the cytosolic fraction) was separated from the pellet, aliquoted and flash frozen in liquid nitrogen, then kept frozen at −80°C until usage.
(§2) The IC50 values reported herein were determined using either a fluorescent based assay (CMNPC as substrate) for purified enzyme preparations or a radioactive based assay ([^3H]t-DPPO as substrate) for crude enzyme preparations ([20]). The fluorescent assay was used with the purified proteins. […] The substrate (CMNPC) was then added ([S]final = 5 μM). […] The radioactive […] assay was used with the liver crude extracts. Extracts were incubated with inhibitors ([I]final = 1–1,000 nM) at 30° C for 5 min in sodium phosphate buffer (pH 7.4) containing 0.1 mg/mL of BSA and 1% of DMSO, prior to substrate introduction ([^3H]t-DPPO [S]final: 50 μM; ~12,000 dpm/assay). The enzymes were incubated at 30°C for 10 min, and the reaction was quenched by the addition of 60 μL methanol and 200 μL isooctane, which extracts the remaining epoxide from the aqueous phase. […] Assays were performed in triplicate.

[2] = target: T2, sEH activity from liver cytosol of Hamster (Mesocricetus auratus, UniProt A0A1U7QV09); assay: as above; assay type: biochemical; settings: [3H]t-DPPO ([S]final = 5 μM) as substrate
T2 sequence (A0A1U7QV09 1-554): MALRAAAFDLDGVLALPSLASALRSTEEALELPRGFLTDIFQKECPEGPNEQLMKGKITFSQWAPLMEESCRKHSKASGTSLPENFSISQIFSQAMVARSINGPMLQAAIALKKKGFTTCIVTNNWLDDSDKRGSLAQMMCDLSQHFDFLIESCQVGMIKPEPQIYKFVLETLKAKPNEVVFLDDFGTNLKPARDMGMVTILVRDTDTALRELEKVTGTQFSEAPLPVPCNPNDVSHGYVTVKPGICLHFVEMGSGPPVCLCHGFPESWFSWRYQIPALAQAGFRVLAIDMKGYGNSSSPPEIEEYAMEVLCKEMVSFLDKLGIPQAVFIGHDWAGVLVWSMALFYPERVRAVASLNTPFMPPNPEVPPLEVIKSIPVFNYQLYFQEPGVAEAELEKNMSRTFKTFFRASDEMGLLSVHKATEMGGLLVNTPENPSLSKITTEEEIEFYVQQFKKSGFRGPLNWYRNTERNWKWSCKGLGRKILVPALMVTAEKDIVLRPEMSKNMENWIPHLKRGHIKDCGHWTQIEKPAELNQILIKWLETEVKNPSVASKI
Text: as §1, §2

Microsomal stability = assay type: in vitro ADME, horse; settings: for Stability (% without microsomes) Horse liver microsomes NADPH + / Stability (% without microsomes) Horse liver microsomes NADPH –: 1 μM inhibitor, microsomes 1 mg/mL, 37°C, 30 min, compound remaining, average ± SD (n = 3); for Stability (% without microsomes) Horse liver microsomes NADPH +: with NADPH; for metabolism in horse liver microsomes (in words): in the presence of NADPH
Method: The stability of the sEH inhibitors was determined using liver microsomes as described ([24]). […] After 30 min at 37°C, the reaction was stopped by the addition of one volume of methanol containing CUDA (200 nM) as surrogate. The amount of remaining inhibitor was determined by LC/MS/MS. The stability is reported as a percentage of compound remaining after 30 min in these conditions.
Mass spectrometry analyses were performed using a Waters Quattro Premier triple quadrupole tandem mass spectrometer (Micromass, Manchester, UK) interfaced to an electrospray ionization (ESI) source. The MS was coupled with a Waters Acquity UPLC (Waters, Milford, MA, USA). A Varian Pursuit5 C18 RP HPLC column (150 mm × 2.1 mm, particle size 5 μm) was used to separate the analytes. […] The source and the desolvation temperatures were set at 120 and 300°C, respectively. […] Dwell time was set to 0.1 s.

[3] = liver cytosol, [3H]t-DPPO ([S]final = 5 μM) as substrate, read-out: IC50 (nM) Rat

SMILES	IC50 [1, 3]	IC50 [2]	Stability (% without microsomes) Horse liver microsomes NADPH + (Microsomal stability)	Stability (% without microsomes) Horse liver microsomes NADPH – (Microsomal stability)	stability in horse liver microsomes (in words) (Microsomal stability; in the absence of NADPH)	metabolism in horse liver microsomes (in words) (Microsomal stability)	IC50 [1]
N#CNC(=O)CCCCCCCCCCCNC(=O)NC12CC3CC(CC(C3)C1)C2 [1,845]	12 nM	34 nM	28 ± 9%	67 ± 3%	not stable	further metabolized	–
O=C(NCCCCOc1ccc(F)cc1)NC12CC3CC(CC(C3)C1)C2 [1,707]	7 nM	2 nM	1.6 ± 0.2%	–	–	metabolized rapidly	–
O=C(Nc1ccc(OC(F)(F)F)cc1)N[C@H]1CC[C@H](Oc2ccc(C(=O)O)cc2)CC1 [1,728, trans-4-{4-[3-(4-trifluoromethoxy-phenyl)-ureido]-cyclohexyloxy}-benzoic acid]	–	5 nM	89 ± 3%	108 ± 10%	–	most stable	6 nM
